Where “and” joins values, the source holds several entries; their conditions need not be identical. Equal entries are not always repeated.
What was measured:
[1] = FT4 in serum by ultrafiltration (UF), LC-MS/MS; assay type: in vitro ADME, human; settings: for Concentration UF, Average: average of 10 samples; for Concentration UF: serum, individual samples No. 1-10
Source text: (§1) In practice, other temperatures can also be used. […] Where

[2] = FT4 in serum by equilibrium dialysis (ED), LC-MS/MS; assay type: in vitro ADME, human; settings: for Concentration ED, Average: average of 10 samples; for Concentration ED: serum, individual samples No. 1-10
Source text: as §1

[3] = FT3 in serum by equilibrium dialysis (ED), LC-MS/MS; settings: for Concentration ED, Average: average of 10 samples; for Concentration ED: serum, individual samples No. 1-10
Description: (§2) In a method in this embodiment, ultrafiltration and equilibrium dialysis are performed to separate free triiodothyronine (FT3) at 20° C., 25° C., 30° C., and 37° C., respectively. In practice, another temperature value may be used. Where
(§3) Equilibrium dialysis: 200 μL 4-hydroxyethyl piperazine ethanesulfonic acid solution is placed on the buffer side of the equilibrium plate, 200 μL serum is placed on the sample side. Subsequently, the equilibrium dialysis plate is dialyzed at 20° C., 25° C., 30° C., and 37° C. for 22 h, respectively.
Internal standard precipitation: 100 μL internal standard solution is added to 100 μL dialysate and vortexed well for 3 min. Then, centrifugation is performed at 4° C. and 12000 rpm for 10 min.
(§4) After the free T3 is separated by using ultrafiltration and equilibrium dialysis, the free T3 is detected by the following high-performance liquid chromatography tandem mass spectrometry parameters:
(§5) chromatographic column: Acquity UPLC BEH C18 (2.1×50 mm, 1.7 μm); column oven temperature: 30° C.; mobile phases: 0.1% formic acid aqueous solution (A)˜0.1% formic acid methanol (B); and gradient elution: […]
(§6) ion source: electrospray ion source in positive ion mode; spray voltage: 5500 V; ion source temperature: 550° C.; GS1: 50 psi; GS2: 50 psi; curtain gas: 30 psi; and multiple reaction monitoring: […]

[4] = FT3 in serum by ultrafiltration (UF), LC-MS/MS; settings: for Concentration UF, Average: average of 10 samples; for Concentration UF: serum, individual samples No. 1-10
Description: as §2
(§7) Ultrafiltration: 100 μL 4-hydroxyethyl piperazine ethanesulfonic acid solution is added to a 100 μL serum, and the solution is mixed well by pipettes. Subsequently, the obtained mixture is transferred to the activated ultrafiltration tube and centrifuged at 20° C., 25° C., 30° C., and 37° C., and 2000 g for 1 h, respectively.
Internal standard precipitation: 100 μL internal standard solution is added to 100 μL ultrafiltrate, and vortexed well for 3 min. Then, centrifugation is performed at 4° C. and 12000 rpm for 10 min.
as §4, §5, §6

[5] = free testosterone in serum by equilibrium dialysis (ED), LC-MS/MS; settings: for Concentration ED, Average: average of 10 samples; for Concentration ED: serum, individual samples No. 1-10
Description: (§8) In practice, other temperatures can also be used. Subsequently, high-performance liquid chromatography tandem mass spectrometry is used for detection, and results are shown in Table 1. Where
as §3, with “the equilibrium dialysis plate, 200” for “the equilibrium plate, 200”
(§9) Solid-phase extraction: 20 μL internal standard solution is added to 200 μL dialysate, and vortexed well. The obtained mixture is added to an activated HLB solid-phase extraction: conditioning is performed twice by 300 μL 10% methanol aqueous solution, elution is performed twice by using 300 μL 90% methanol aqueous solution, eluent is merged and blown to dry by nitrogen, and finally, the obtained product is redissolved by 100 μL 50% methanol aqueous solution.
(§10) Chromatographic column: Acquity UPLC BEH C18 (2.1×50 mm, 1.7 μm); column oven temperature: 40° C.; mobile phases: 0.1% formic acid 2 mM ammonium acetate aqueous solution (A)˜methanol (B); and gradient elution: […]
as §6

[6] = free testosterone in serum by ultrafiltration (UF), LC-MS/MS; settings: for Concentration UF, Average: average of 10 samples; for Concentration UF: serum, individual samples No. 1-10
Description: as §8
as §7, with “900” for “100”, “300” for “a 100”
as §9, with “600” for “200”, “ultrafiltrate,” for “dialysate,”, “by” for “by using”
as §10, §6

For `N[C@@H](Cc1cc(I)c(Oc2cc(I)c(O)c(I)c2)c(I)c1)C(=O)O` [FT4, thyroxine], the “Concentration UF, Average” value ([1]; 20° C.) was 6.85 pg/mL, the “Concentration UF” value ([1]; 20° C.) was 7.21 pg/mL and 6.77 pg/mL and 6.78 pg/mL (2×) and 6.40 pg/mL and 6.94 pg/mL and 6.85 pg/mL and 7.01 pg/mL and 6.90 pg/mL and 6.81 pg/mL and the “Concentration UF, Average” value ([1]; 25° C.) was 8.51 pg/mL. For the same molecule, the “Concentration UF” value ([1]; 25° C.) was 7.92 pg/mL and 8.97 pg/mL and 8.74 pg/mL and 8.58 pg/mL and 8.14 pg/mL and 8.06 pg/mL and 8.57 pg/mL and 8.72 pg/mL and 8.63 pg/mL and 8.76 pg/mL, the “Concentration UF, Average” value ([1]; 30° C.) was 10.58 pg/mL and the “Concentration UF” value ([1]; 30° C.) was 10.73 pg/mL and 9.82 pg/mL and 10.55 pg/mL and 10.61 pg/mL and 10.97 pg/mL and 10.75 pg/mL and 10.82 pg/mL and 10.57 pg/mL and 10.33 pg/mL and 10.63 pg/mL. For the same molecule, the “Concentration UF, Average” value ([1]; 37° C.) was 14.00 pg/mL, the “Concentration UF” value ([1]; 37° C.) was 13.45 pg/mL and 13.82 pg/mL and 14.14 pg/mL and 13.57 pg/mL and 14.22 pg/mL and 14.58 pg/mL and 13.74 pg/mL and 14.05 pg/mL and 14.26 pg/mL and 14.16 pg/mL and the “Concentration ED, Average” value ([2]; 20° C.) was 6.83 pg/mL. For the same molecule, the “Concentration ED” value ([2]; 20° C.) was 7.05 pg/mL (2×) and 6.91 pg/mL and 6.85 pg/mL and 6.76 pg/mL and 6.71 pg/mL and 6.42 pg/mL and 6.83 pg/mL and 6.84 pg/mL and 6.90 pg/mL, the “Concentration ED, Average” value ([2]; 25° C.) was 8.53 pg/mL and the “Concentration ED” value ([2]; 25° C.) was 8.37 pg/mL and 8.33 pg/mL and 8.83 pg/mL and 8.05 pg/mL and 8.24 pg/mL and 8.94 pg/mL and 8.47 pg/mL and 8.69 pg/mL and 8.73 pg/mL and 8.65 pg/mL. The “Concentration ED, Average” value ([2]; 30° C.) was 10.80 pg/mL, the “Concentration ED” value ([2]; 30° C.) was 10.91 pg/mL and 11.07 pg/mL and 11.18 pg/mL and 10.63 pg/mL (2×) and 10.46 pg/mL and 10.98 pg/mL and 10.74 pg/mL and 10.67 pg/mL and 10.75 pg/mL and the “Concentration ED, Average” value ([2]; 37° C.) was 14.22 pg/mL. The “Concentration ED” value ([2]; 37° C.) was 14.17 pg/mL and 14.64 pg/mL and 13.61 pg/mL and 14.22 pg/mL and 14.67 pg/mL and 14.63 pg/mL and 13.94 pg/mL and 14.15 pg/mL and 14.11 pg/mL and 14.06 pg/mL.
In the case of `N[C@@H](Cc1cc(I)c(Oc2ccc(O)c(I)c2)c(I)c1)C(=O)O` [FT3, triiodothyronine], the “Concentration ED, Average” value ([3]; 20° C.) is reported as 2.40 pg/mL, the “Concentration ED” value ([3]; 20° C.) is reported as 2.45 pg/mL and 2.62 pg/mL and 2.25 pg/mL and 2.35 pg/mL and 2.48 pg/mL and 2.36 pg/mL and 2.27 pg/mL and 2.46 pg/mL and 2.42 pg/mL and 2.31 pg/mL and the “Concentration ED, Average” value ([3]; 25° C.) is reported as 2.61 pg/mL. For the same molecule, the “Concentration ED” value ([3]; 25° C.) was 2.65 pg/mL and 2.75 pg/mL and 2.52 pg/mL and 2.61 pg/mL and 2.48 pg/mL and 2.54 pg/mL and 2.68 pg/mL and 2.70 pg/mL and 2.63 pg/mL and 2.57 pg/mL, the “Concentration ED, Average” value ([3]; 30° C.) was 2.77 pg/mL and the “Concentration ED” value ([3]; 30° C.) was 2.72 pg/mL and 2.65 pg/mL and 2.85 pg/mL (2×) and 2.88 pg/mL and 2.68 pg/mL and 2.76 pg/mL and 2.78 pg/mL (2×) and 2.71 pg/mL. The “2nd conc. (ED)” value ([3]; 37° C. equilibrium dialysis 22 h, 60 different serum specimens) was 3.05 and 3.18 and 3.17 and 3.22 and 3.04 and 3.24 and 3.19 and 3.48, the “Concentration ED, Average” value ([3]; 37° C.) was 3.22 pg/mL and the “Concentration ED” value ([3]; 37° C.) was 3.13 pg/mL and 3.22 pg/mL and 3.04 pg/mL and 3.32 pg/mL and 3.15 pg/mL and 3.31 pg/mL (2×) and 3.34 pg/mL and 3.28 pg/mL and 3.12 pg/mL. The “Concentration UF, Average” value ([4]; 20° C.) was 2.34 pg/mL, the “Concentration UF” value ([4]; 20° C.) was 2.54 pg/mL and 2.25 pg/mL and 2.36 pg/mL (2×) and 2.41 pg/mL and 2.32 pg/mL and 2.28 pg/mL and 2.17 pg/mL and 2.52 pg/mL and 2.23 pg/mL and the “Concentration UF, Average” value ([4]; 25° C.) was 2.58 pg/mL. For the same molecule, the “Concentration UF” value ([4]; 25° C.) was 2.52 pg/mL and 2.62 pg/mL and 2.45 pg/mL and 2.68 pg/mL and 2.58 pg/mL and 2.46 pg/mL and 2.57 pg/mL and 2.65 pg/mL and 2.71 pg/mL and 2.53 pg/mL, the “Concentration UF, Average” value ([4]; 30° C.) was 2.73 pg/mL and the “Concentration UF” value ([4]; 30° C.) was 2.68 pg/mL and 2.75 pg/mL (2×) and 2.82 pg/mL and 2.66 pg/mL and 2.78 pg/mL and 2.58 pg/mL and 2.84 pg/mL and 2.72 pg/mL and 2.67 pg/mL. For the same molecule, the “Concentration UF, Average” value ([4]; 37° C.) was 3.19 pg/mL and the “Concentration UF” value ([4]; 37° C.) was 3.05 pg/mL (2×) and 3.24 pg/mL and 3.13 pg/mL and 3.48 pg/mL and 3.20 pg/mL and 3.18 pg/mL and 3.27 pg/mL and 3.08 pg/mL and 3.17 pg/mL.
With `C[C@]12CC[C@H]3[C@@H](CCC4=CC(=O)CC[C@@]43C)[C@@H]1CC[C@@H]2O` [free testosterone, testosterone] the “Concentration ED, Average” value ([5]; 20° C.) was 4.08 pg/mL, the “Concentration ED” value ([5]; 20° C.) was 4.05 pg/mL (2×) and 4.17 pg/mL and 3.94 pg/mL and 4.21 pg/mL and 3.85 pg/mL and 4.18 pg/mL and 4.01 pg/mL and 4.16 pg/mL and 4.22 pg/mL and the “Concentration ED, Average” value ([5]; 25° C.) was 4.55 pg/mL. The “Concentration ED” value ([5]; 25° C.) was 4.75 pg/mL and 4.61 pg/mL and 4.48 pg/mL and 4.56 pg/mL and 4.41 pg/mL and 4.62 pg/mL and 4.57 pg/mL and 4.42 pg/mL and 4.50 pg/mL and 4.54 pg/mL, the “Concentration ED, Average” value ([5]; 30° C.) was 4.93 pg/mL and the “Concentration ED” value ([5]; 30° C.) was 5.04 pg/mL and 5.01 pg/mL and 4.95 pg/mL and 5.02 pg/mL and 4.85 pg/mL and 4.87 pg/mL and 4.91 pg/mL and 4.98 pg/mL and 4.84 pg/mL and 4.82 pg/mL. For the same molecule, the “Concentration ED, Average” value ([5]; 37° C.) was 5.21 pg/mL, the “Concentration ED” value ([5]; 37° C.) was 5.40 pg/mL and 4.95 pg/mL and 5.23 pg/mL and 5.42 pg/mL and 5.12 pg/mL and 5.32 pg/mL and 5.22 pg/mL and 5.27 pg/mL and 5.13 pg/mL and 5.07 pg/mL and the “Concentration UF, Average” value ([6]; 20° C.) was 4.12 pg/mL. The “Concentration UF” value ([6]; 20° C.) was 4.26 pg/mL and 4.29 pg/mL and 4.01 pg/mL and 4.38 pg/mL and 3.98 pg/mL and 3.92 pg/mL and 4.15 pg/mL and 4.12 pg/mL and 3.97 pg/mL and 4.07 pg/mL, the “Concentration UF, Average” value ([6]; 25° C.) was 4.50 pg/mL and the “Concentration UF” value ([6]; 25° C.) was 4.37 pg/mL and 4.64 pg/mL (2×) and 4.51 pg/mL (2×) and 4.45 pg/mL and 4.39 pg/mL and 4.48 pg/mL and 4.43 pg/mL and 4.61 pg/mL. The “Concentration UF, Average” value ([6]; 30° C.) was 4.81 pg/mL, the “Concentration UF” value ([6]; 30° C.) was 4.69 pg/mL and 4.96 pg/mL (2×) and 4.83 pg/mL and 4.79 pg/mL and 4.58 pg/mL and 4.85 pg/mL and 4.91 pg/mL and 4.74 pg/mL and 4.77 pg/mL and the “Concentration UF, Average” value ([6]; 37° C.) was 5.16 pg/mL. For the same molecule, the “Concentration UF” value ([6]; 37° C.) was 5.12 pg/mL and 5.28 pg/mL and 5.30 pg/mL and 5.04 pg/mL and 5.16 pg/mL (2×) and 5.18 pg/mL and 5.24 pg/mL and 5.03 pg/mL and 5.07 pg/mL.

Reference: patent US20240319211A1, “CONTENT CONVERSION METHOD OF FREE COMPONENTS BY TRANSFORMING ULTRAFILTRATION TO EQUILIBRIUM DIALYSIS” (HEFEI NOVA-MS BIOTECH MEDICAL EQUIPMENT CO., LTD, priority 2022, published 2024)
